Test results as given in PubChem BioAssay AID256 (DTP/NCI, 2004).
Where “and” joins values, the source holds several entries; their conditions need not be identical. Equal entries are not always repeated. Inconclusive results and toxic doses are left out. The calls were made as follows: active = survival T/C of 150% or more; inactive = T/C below 125% in these data.

System: CD2F1 mice, L1210 leukemia ip, survival T/C
Test: NCI In Vivo Anticancer Drug Screen. Data for tumor model L1210 Leukemia (intraperitoneal) in CD2F1 (CDF1) mice
Conditions: higher = longer survival
Procedure, shortened: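 Tumor-bearing mice (transplanted tumor) were split into treated and vehicle control groups, and the measured endpoint of each treated group was divided by that of its vehicle controls.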

[1] = endpoint: mean survival time, dose: 100.0 mg/kg/injection, schedule: Q04DX003 (ip), vehicle: saline with Tween-80
[2] = endpoint: mean survival time, dose: 200.0 mg/kg/injection, schedule: Q04DX003 (ip), vehicle: saline with Tween-80
[3] = endpoint: mean survival time, dose: 400.0 mg/kg/injection, schedule: Q04DX003 (ip), vehicle: saline with Tween-80
[4] = endpoint: mean survival time, dose: 12.5 mg/kg/injection, schedule: Q01DX009 (ip), vehicle: saline with Tween-80
[5] = endpoint: mean survival time, dose: 25.0 mg/kg/injection, schedule: Q01DX009 (ip), vehicle: saline with Tween-80
[6] = endpoint: mean survival time, dose: 50.0 mg/kg/injection, schedule: Q01DX009 (ip), vehicle: saline with Tween-80
[7] = endpoint: mean survival time, dose: 100.0 mg/kg/injection, schedule: Q01DX009 (ip), vehicle: Klucel (hydroxypropylcellulose) (HPC)
[8] = endpoint: mean survival time, dose: 200.0 mg/kg/injection, schedule: Q01DX009 (ip), vehicle: Klucel (hydroxypropylcellulose) (HPC)
[9] = endpoint: mean survival time, dose: 400.0 mg/kg/injection, schedule: Q01DX009 (ip), vehicle: Klucel (hydroxypropylcellulose) (HPC)
[10] = endpoint: mean survival time, dose: 100.0 mg/kg/injection, schedule: Q04DX003 (ip), vehicle: saline
[11] = endpoint: mean survival time, dose: 12.5 mg/kg/injection, schedule: Q01DX005 (ip), vehicle: other
[12] = endpoint: mean survival time, dose: 25.0 mg/kg/injection, schedule: Q01DX005 (ip), vehicle: other
[13] = endpoint: mean survival time, dose: 50.0 mg/kg/injection, schedule: Q01DX005 (ip), vehicle: other
[14] = endpoint: mean survival time, dose: 100.0 mg/kg/injection, schedule: Q01DX001 (ip), vehicle: saline with Tween-80
[15] = endpoint: mean survival time, dose: 200.0 mg/kg/injection, schedule: Q01DX001 (ip), vehicle: saline with Tween-80
[16] = endpoint: mean survival time, dose: 400.0 mg/kg/injection, schedule: Q01DX001 (ip), vehicle: saline with Tween-80

Measured: T/C

c1ccc(Sc2ccc3ccccc3c2)cc1
inactive: [1] 98 % of control | [2] 101 % of control | [3] 91 % of control

Cc1nc([N+](=O)[O-])c(Br)n1C
inactive: [1] 103 % of control | [2] 108 % of control | [3] 94 % of control

CSc1nc(N)c2c(n1)nc(N(C)C)n2O
inactive: endpoint: mean survival time, dose: 12.5 mg/kg/injection, schedule: Q01DX005 (ip), vehicle: water 106 % of control | endpoint: mean survival time, dose: 25.0 mg/kg/injection, schedule: Q01DX005 (ip), vehicle: water 102 % of control | endpoint: mean survival time, dose: 50.0 mg/kg/injection, schedule: Q01DX005 (ip), vehicle: water 93 % of control | endpoint: mean survival time, dose: 100.0 mg/kg/injection, schedule: Q01DX005 (ip), vehicle: water 95 % of control | endpoint: mean survival time, dose: 200.0 mg/kg/injection, schedule: Q01DX005 (ip), vehicle: water 97 % of control

Cc1cc(C)c(C#[N+][O-])c(C)c1
inactive: [4] 97 % of control | [5] 94 % of control | [6] 91 % of control

CC(=O)OC1OC(CS[As](C)C)C(OC(C)=O)C(OC(C)=O)C1OC(C)=O (configuration not stated)
inactive: endpoint: mean survival time, dose: 50.0 mg/kg/injection, schedule: Q01DX009 (ip), vehicle: other 96 % of control | endpoint: mean survival time, dose: 100.0 mg/kg/injection, schedule: Q01DX009 (ip), vehicle: other 108 % of control | endpoint: mean survival time, dose: 200.0 mg/kg/injection, schedule: Q01DX009 (ip), vehicle: other 93 % of control

CN1C(=O)NC(c2cccc(N(CCCl)CCCl)c2)C1=O (configuration not stated)
inactive: endpoint: mean survival time, dose: 25.0 mg/kg/injection, schedule: Q01DX001 (ip), vehicle: Klucel (hydroxypropylcellulose) (HPC) 116 % of control and 108 % of control | endpoint: mean survival time, dose: 50.0 mg/kg/injection, schedule: Q01DX001 (ip), vehicle: Klucel (hydroxypropylcellulose) (HPC) 120 % of control | endpoint: mean survival time, dose: 100.0 mg/kg/injection, schedule: Q01DX001 (ip), vehicle: Klucel (hydroxypropylcellulose) (HPC) 121 % of control

CC(=O)NCCc1ccccc1
inactive: [7] 109 % of control | endpoint: mean survival time, dose: 100.0 mg/kg/injection, schedule: Q04DX003 (ip), vehicle: saline sonified 103 % of control | [8] 102 % of control | endpoint: mean survival time, dose: 200.0 mg/kg/injection, schedule: Q04DX003 (ip), vehicle: saline sonified 109 % of control | [9] 104 % of control | endpoint: mean survival time, dose: 400.0 mg/kg/injection, schedule: Q04DX003 (ip), vehicle: saline sonified 97 % of control

OC(C1CCCCN1)C1CC(c2ccccc2)Nc2c(Cl)cc(Cl)cc21 (configuration not stated)
inactive: [10] 97 % of control

Cc1ccc(NC(=O)OCCSC(=O)COc2ccc(Cl)cc2Cl)cc1
inactive: [1] 98 % of control | [2] 98 % of control | [3] 93 % of control

COC(=O)c1[nH]nc(-c2ccc(N)cc2)c1N
inactive: endpoint: mean survival time, dose: 3.13 mg/kg/injection, schedule: Q01DX005 (ip), vehicle: other 114 % of control | endpoint: mean survival time, dose: 6.25 mg/kg/injection, schedule: Q01DX005 (ip), vehicle: other 93 % of control | [11] 107 % of control | [12] 93 % of control | [13] 93 % of control

O=c1cc(Cl)ncn1C1OC(CO)C(O)C1O (configuration not stated)
inactive: endpoint: median survival time, dose: 12.5 mg/kg/injection, schedule: Q01DX005 (ip), vehicle: saline 108 % of control | endpoint: median survival time, dose: 25.0 mg/kg/injection, schedule: Q01DX005 (ip), vehicle: saline 104 % of control | endpoint: median survival time, dose: 50.0 mg/kg/injection, schedule: Q01DX005 (ip), vehicle: saline 95 % of control | endpoint: median survival time, dose: 100.0 mg/kg/injection, schedule: Q01DX005 (ip), vehicle: saline 97 % of control | endpoint: median survival time, dose: 200.0 mg/kg/injection, schedule: Q01DX005 (ip), vehicle: saline 97 % of control

O=C(Nc1ccccc1[N+](=O)[O-])Oc1ccccc1
inactive: endpoint: mean survival time, dose: 75.0 mg/kg/injection, schedule: Q04DX002 (ip), vehicle: saline with Tween-80 96 % of control | endpoint: mean survival time, dose: 150.0 mg/kg/injection, schedule: Q04DX002 (ip), vehicle: saline with Tween-80 96 % of control | endpoint: mean survival time, dose: 300.0 mg/kg/injection, schedule: Q04DX002 (ip), vehicle: saline with Tween-80 96 % of control

CCOC(=O)c1c(O)c(=O)[nH]c2ccccc12
inactive: endpoint: mean survival time, dose: 100.0 mg/kg/injection, schedule: Q01DX005 (ip), vehicle: saline with Tween-80 106 % of control | endpoint: mean survival time, dose: 200.0 mg/kg/injection, schedule: Q01DX005 (ip), vehicle: saline with Tween-80 97 % of control | endpoint: mean survival time, dose: 400.0 mg/kg/injection, schedule: Q01DX005 (ip), vehicle: saline with Tween-80 97 % of control

CC#CC(=O)SCCNC(=O)CC(C)(C)C
inactive: [5] 96 % of control | endpoint: mean survival time, dose: 25.0 mg/kg/injection, schedule: Q04DX003 (ip), vehicle: saline with Tween-80 105 % of control | [6] 96 % of control | endpoint: mean survival time, dose: 50.0 mg/kg/injection, schedule: Q04DX003 (ip), vehicle: saline with Tween-80 96 % of control | endpoint: mean survival time, dose: 100.0 mg/kg/injection, schedule: Q01DX009 (ip), vehicle: saline with Tween-80 95 % of control | [1] 106 % of control | endpoint: mean survival time, dose: 200.0 mg/kg/injection, schedule: Q01DX009 (ip), vehicle: saline with Tween-80 97 % of control | [2] 98 % of control

CCCCCCCCCCSCC
inactive: endpoint: mean survival time, dose: 100.0 mg/kg/injection, schedule: Q01DX009 (ip), vehicle: saline 101 % of control | [10] 103 % of control | endpoint: mean survival time, dose: 200.0 mg/kg/injection, schedule: Q01DX009 (ip), vehicle: saline 104 % of control | endpoint: mean survival time, dose: 200.0 mg/kg/injection, schedule: Q04DX003 (ip), vehicle: saline 103 % of control | endpoint: mean survival time, dose: 400.0 mg/kg/injection, schedule: Q01DX009 (ip), vehicle: saline 101 % of control | endpoint: mean survival time, dose: 400.0 mg/kg/injection, schedule: Q04DX003 (ip), vehicle: saline 103 % of control

CC1OC(C)(C)OC1C(=O)OCc1ccccc1 (configuration not stated)
inactive: endpoint: mean survival time, dose: 25.0 mg/kg/injection, schedule: Q01DX009 (ip), vehicle: Klucel (hydroxypropylcellulose) (HPC) 96 % of control | endpoint: mean survival time, dose: 50.0 mg/kg/injection, schedule: Q01DX009 (ip), vehicle: Klucel (hydroxypropylcellulose) (HPC) 93 % of control | [7] 99 % of control | [8] 94 % of control | [9] 99 % of control

CC1CCC(NC(=O)NCCCl)CC1 (configuration not stated)
inactive: [14] 98 % of control | [15] 109 % of control | [16] 101 % of control

COC(=O)CCC1c2[nH]c3ccccc3c2CCN1C (configuration not stated)
inactive: [1] 93 % of control | [2] 102 % of control | [3] 102 % of control

[CH3][Sn]1([CH3])[O]C2C(CO)OC(n3ccc(N)nc3=O)C2[O]1 (configuration not stated)
inactive: [11] 103 % of control | [12] 92 % of control | [13] 106 % of control

CCC[CH2][Sn](=[S])[CH2]CCC
inactive: endpoint: mean survival time, dose: 0.39 mg/kg/injection, schedule: Q01DX009 (ip), vehicle: other 102 % of control | endpoint: mean survival time, dose: 0.78 mg/kg/injection, schedule: Q01DX009 (ip), vehicle: other 100 % of control | endpoint: mean survival time, dose: 1.56 mg/kg/injection, schedule: Q01DX009 (ip), vehicle: other 107 % of control | endpoint: mean survival time, dose: 6.25 mg/kg/injection, schedule: Q04DX003 (ip), vehicle: other 103 % of control | endpoint: mean survival time, dose: 12.5 mg/kg/injection, schedule: Q04DX003 (ip), vehicle: other 103 % of control

CCOP(=S)(OCC)OP(=S)(OCC)OCC
inactive: endpoint: mean survival time, dose: 4.0 mg/kg/injection, schedule: Q04DX003 (ip), vehicle: other 95 % of control

O=c1c(Cl)c(Cl)cnn1-c1ccc([N+](=O)[O-])cc1[N+](=O)[O-]
inactive: endpoint: mean survival time, dose: 100.0 mg/kg/injection, schedule: Q01DX001 (ip), vehicle: other 88 % of control | endpoint: mean survival time, dose: 200.0 mg/kg/injection, schedule: Q01DX001 (ip), vehicle: other 88 % of control | endpoint: mean survival time, dose: 400.0 mg/kg/injection, schedule: Q01DX001 (ip), vehicle: other 94 % of control

Cc1ccc(C(=O)C(=O)c2ccc(C)cc2C)c(C)c1
inactive: endpoint: mean survival time, dose: 75.0 mg/kg/injection, schedule: Q01DX001 (ip), vehicle: other 94 % of control | endpoint: mean survival time, dose: 150.0 mg/kg/injection, schedule: Q01DX001 (ip), vehicle: other 87 % of control | endpoint: mean survival time, dose: 300.0 mg/kg/injection, schedule: Q01DX001 (ip), vehicle: other 94 % of control

CC(=O)C1C(c2ccccc2)=C(c2ccccc2)c2ccccc21 (configuration not stated)
inactive: [14] 88 % of control | [15] 92 % of control | [16] 92 % of control

Cc1ccc(N=Nc2sc(N)nc2-c2cccc([N+](=O)[O-])c2)cc1
inactive: [14] 89 % of control | [15] 96 % of control

CC(O)/C=C/c1ccccc1O (configuration not stated)
inactive: [1] 90 % of control | [2] 96 % of control | [3] 93 % of control

Nc1ccc2cc(O)ccc2c1
inactive: [4] 91 % of control | [5] 98 % of control | [6] 95 % of control
